Laboratory results as given in patent publication US20160051514A1, “METHODS FOR TREATMENT OF CARDIOMYOPATHY” (THE BRIGHAM AND WOMEN'S HOSPITAL, INC., priority 2013, published 2016).
“Also recorded” adds a separate entry of the source.

How the values were obtained:
[1] = system: zebrafish ventricular myocytes expressing 2057del2 plakoglobin; assay: Action potentials by current clamp in isolated zebrafish ventricular myocytes; format: cell-based, zebrafish (Danio rerio)
Text: (§1) Zebrafish ventricular myocyte isolation and culture: Zebrafish (Danio rerio) were bred and maintained at 28′C with 14 hr exposure to light and 10 hr to dark (day/night cycle) according to IACUC-approved protocols. Hearts were extracted from anesthetized fish at 21-56 days post-fertilization(dpf) using micro-dissecting tweezers (Roboz Surgical Instruments), washed vigorously in culture medium (M199, primocin, HEPES, L-glutamine, 10% fetal bovine serum) and placed in fresh medium. Ventricles were separated at the atrio-ventricular junction, pooled in a tube containing enzyme solution (HBSS without calcium/magnesium, Trypsin, PCN/Streptomycin, HEPES) at 37° C. and agitated in a thermomixer at 1000-1200 RPM. Dissociated cells were collected every 10 min from supernatants and transferred to tubes containing culture medium and 10% fetal bovine srum to halt trypsinization. Cells were then pelleted by centrifugation, resuspended in fresh culture medium, and seeded on sterile cover slips coated with laminin (20 μg/ml)^11 at 28° C. in a 5% CO2 incubator. After 36 hr, culture medium was changed and unattached cells were removed.
After opening the gigaseal, the microelectrode amplifier (HEKA, EP-10, Lambrecht, Germany) was set to zero holding current and cells were stimulated at a frequency of 0.5 to 1 Hz. Recordings were corrected for a junction potential of 12 mV.^12,13
as §1, with “culture:” for “culture: Zebrafish (Danio rerio) were bred and maintained at 28′C with 14 hr exposure to light and 10 hr to dark (day/night cycle) according to IACUC-approved protocols.”, “3-4 or 5-7 weeks post-fertilization” for “21-56 days post-fertilization(dpf)”, “(calcium/magnesium free-HBSS containing trypsin, penicillin/streptomycin,” for “(HBSS without calcium/magnesium, Trypsin, PCN/Streptomycin,”, “serum” for “srum”, “μg/ml)” for “μg/ml)^11”, “28.5°” for “28°”
Cellular electrophysiology methods: Current clamp experiments in isolated neonatal rat and zebrafish ventricular myocytes were carried out using standard protocols (31). […] After opening the gigaseal, the microelectrode amplifier (HEKA, EP-10, Lambrecht, Germany) was set to zero holding current and cells were stimulated at a frequency of 0.5 to 1 Hz. Recordings were corrected for a junction potential of 12 mV (32,33). The chemical composition of the external and pipette solutions is described in supplemental material.

[2] = system: zebrafish ventricular myocytes expressing 2057del2 plakoglobin; assay: INa and IK1 current densities by whole-cell voltage-clamp in zebrafish ventricular myocytes; format: cell-based, zebrafish (Danio rerio); details: for Effect on reduced INa and IK1 current densities (summary statements): myocytes expressing 2057del2 plakoglobin, after exposure
Text: as §1
INa and INa activation and inactivation were measured by whole-cell voltage-clamp according to standard protocols.^14,15 Cells were held at a membrane potential of −80 mV after which pulses between -120 and +50 mV were applied in 5 mV steps each with a duration of 250 ms. Inactivation was measured from membrane potentials between −120 mV and +50 mV at maximal activation.^14,15 In view of the small cell size (cell capacitance of 6.7±2.6pF; n=47) it was not necessary to reduce extracellular [Nal. Access resistance of the patch electrodes was <7 MΩ Measurements showing incomplete control of membrane potential were eliminated from analysis.^14,15
The inward rectifier current IK1 was measured using the protocol described by Dobrev.^16,17 Ramp clamps of 1400 ms duration were applied between −120 and +20 mV. After each clamp, external solution containing Ba^2+(1 mM) was applied via a large pore pipette placed adjacent to the clamped cell. IK1 was defined as the total current minus the Ba^2+-insensitive current. ^16 Subtraction of the two currents was performed using a MatLab™ script.
as §1, with “culture:” for “culture: Zebrafish (Danio rerio) were bred and maintained at 28′C with 14 hr exposure to light and 10 hr to dark (day/night cycle) according to IACUC-approved protocols.”, “3-4 or 5-7 weeks post-fertilization” for “21-56 days post-fertilization(dpf)”, “(calcium/magnesium free-HBSS containing trypsin, penicillin/streptomycin,” for “(HBSS without calcium/magnesium, Trypsin, PCN/Streptomycin,”, “serum” for “srum”, “μg/ml)” for “μg/ml)^11”, “28.5°” for “28°”
INa activation and inactivation were measured by whole-cell voltage-clamp according to standard protocols (32,33). Cells were held at a membrane potential of −80 mV after which pulses between −120 and +50 mV were applied in 5 mV steps each with a duration of 250 ms. Inactivation was measured from membrane potentials between −120 mV and +50 mV at maximal activation (26,33). In view of the small size of zebrafish myocytes (cell capacitance of 6.7±2.6pF; n=47) it was not necessary to reduce extracellular [Na+] to achieve voltage control; extracellular [Na+] was reduced to 50 mM in studies of neonatal rat ventricular myocytes Access resistance of the patch electrodes was <7 MΩ. Measurements showing incomplete control of membrane potential were eliminated from analysis. […]

[3] = 3-4 weeks post-fertilization, 2057del2 plakoglobin + SB2
[4] = 3-4 weeks post-fertilization, Control + SB2
[5] = 5-7 weeks post-fertilization, 2057del2 plakoglobin + SB2, embryos treated at 1 dpf for 6 days (3.0 μM)
[6] = 5-7 weeks post-fertilization, Control + SB2, embryos treated at 1 dpf for 6 days (3.0 μM)
[7] = embryos treated at 1 dpf for 6 days, myocytes studied at 5-7 weeks
[8] = isolated myocytes from transgenic fish treated in culture for 36 hr

Compound: Cn1cc(C2=C(c3ccc(Cl)cc3Cl)C(=O)NC2=O)c2ccccc21 [SB216763]
- Action potential duration [1, 3]: 175 ms
- Maximal upstroke velocity [1, 3]: 22 V/s
- Resting membrane potential [1, 3]: −75 mV
- Action potential duration [1, 4]: 173 ms
- Maximal upstroke velocity [1, 4]: 35 V/s
- Resting membrane potential [1, 4]: −79 mV
- Action potential duration [1, 5]: 154 ms
- Maximal upstroke velocity [1, 5]: 66 V/s
- Resting membrane potential [1, 5]: −78 mV
- Action potential duration [1, 6]: 195 ms
- Maximal upstroke velocity [1, 6]: 53 V/s
- Resting membrane potential [1, 6]: −77 mV
- Effect on APD80% in fish expressing mutant plakoglobin [1, 7]: shortened APD8O% beyond control levels; also recorded: shortened APD80% beyond control levels
- Effect on RMP and dV/dtmax in fish expressing mutant plakoglobin [1, 7]: normalized RMP and dV/dtmax
- Effect on action potentials in myocytes from control fish [1, 7]: had no effect on action potentials; also recorded: did not affect action potentials
- Effect on action potential remodeling, short-term exposure of isolated cells [1, 8]: normalized action potential remodeling
- IK1: current density at −100 mV [2, 3]: −15 pA/pF
- IK1: slope between −90 and −15 mV [2, 3]: −21 pA/pF*100 mV
- INa: peak current density [2, 3]: −163 pA/pF
- IK1: current density at −100 mV [2, 4]: −18 pA/pF
- IK1: slope between −90 and −15 mV [2, 4]: −27 pA/pF*100 mV
- INa: peak current density [2, 4]: −230 pA/pF
- INa: peak current density ([2]; 7-8 weeks post-fertilization, 2057del2 plakoglobin + SB2): −172 pA/pF
- INa: peak current density ([2]; 7-8 weeks post-fertilization, Control + SB2): −168 pA/pF
- Effect on INa and IK1 current densities in cells expressing 2057del2 plakoglobin ([2]; early exposure of embryos): marked normalization of these currents; also recorded: almost completely normalized these currents
- Effect on INa or IK1 current densities in control myocytes ([2]; early exposure of embryos): had no effect
- Effect on reduced INa and IK1 current densities, short-term exposure of isolated cells [2, 8]: reversed reductions in INa and IK1 current densities
- Effect on reduced INa and IK1 current densities (summary statements) [2]: rapidly normalized
- Effect on reduced INa and IK1 current densities (summary statements) ([2]; listed as SB2168763): rapid, near total recovery
